Structures are written as SMILES.

The results in this text go back to patent publication US6689801B2, “Certain heteroaryl substituted thiol inhibitors of endothelin-converting enzyme” (Novartis AG, priority 1998, dated 2004).

In the case of `Cc1noc(C)c1-c1nc(CC(NC(=O)C2(NC(=O)[C@@H](S)C(C)C)CCCC2)C(=O)O)no1` (stereo in doubt) [Example 1(g), 3-[5-(3,5-Dimethyl-isoxazol-4-yl)-[1,2,4]oxadiazol-3-yl]-2-{[1-(2-mercapto-3-methyl-butanoylamino)-cyclopentanecarbonyl]-amino}-propionic acid], the melting point (in general, the temperature, or range, at which the solid turns liquid) lay in the range of 170 to 172 °C.

As for `CC(C)C[C@H](S)C(=O)NC(C)(C)C(=O)N[C@@H](Cc1ccc(-c2cccs2)nc1)C(=O)O` (stereo in doubt) [Example 2(z), 2-[2-(2-Mercapto-4-methyl-pentanoylamino)-2-methyl-propionylamino]-3-[6-(thien-2-yl)-pyridin-3-yl]-propionic acid], the melting point lay within 194 to 196 °C.

`CC(C)C[C@H](S)C(=O)NC1(C(=O)NC(Cc2ccc(-c3ccoc3)nc2)C(=O)O)CCCC1` (stereo in doubt) [Example 2(dd), 3-[6-(Furan-3-yl)-pyridin-3-yl]-2-{[1-(2-mercapto-4-methyl-pentanoylamino)-cyclopentanecarbonyl]-amino}-propanoic acid] yielded a melting point of 190 to 193 °C.

Turning to `CCCC(S)C(=O)NC1(C(=O)NC(Cc2ccc(-c3cccs3)nc2)C(=O)O)CCCC1.Cl` (stereo not drawn), the melting point was 165 to 167 °C.

The compound `CC(C)C[C@H](S)C(=O)NC(C)(C)C(=O)N[C@@H](Cc1ccc(-c2ccsc2)nc1)C(=O)O` (stereo in doubt) [Example 2(k), 2-[2-(2-Mercapto-4-methyl-pentanoylamino)-2-methyl-propionylamino]-3-[6-(thien-3-yl)-pyridin-3-yl]-propionic acid] yielded a melting point of 218 to 220 °C.

Turning to `CC(C)C[C@H](NC(=O)[C@@H](S)CC(C)C)C(=O)N[C@@H](Cc1ccc(-c2cccs2)nc1)C(=O)O` (stereo in doubt) [Example 2(aa), 2-[2-(2-Mercapto-4-methyl-pentanoylamino)-4-methyl-pentanoylamino]-3-[6-(thien-2-yl)-pyridin-3-yl]-propionic acid], the melting point lay within 156 to 158 °C.

With `CSCC[C@H](S)C(=O)NC1(C(=O)NC(Cc2ccc(-c3cccs3)nc2)C(=O)O)CCCC1` (stereo in doubt) [Example 2(r), 2-{[1-(2-Mercapto-4-methylthio-butanoylamino)-cyclopentanecarbonyl]-amino}-3-[6-(thien-2-yl)-pyridin-3-yl]-propionic acid], the melting point lay in the range of 175 to 177 °C.

In turn, `CC[C@H](C)[C@H](S)C(=O)NC1(C(=O)NC(Cc2ccc(-c3ccccc3)s2)C(=O)O)CCCC1` (stereo in doubt) [Example 1(b), 2-{[1-(2-Mercapto-3-methyl-pentanoylamino)-cyclopentanecarbonyl]-amino}-3-(5-phenyl-thien-2-yl)-propionic acid] registered a melting point of 131 to 133 °C.

Take `CSCC[C@H](S)C(=O)NC1(C(=O)NC(Cc2ccc(-c3ccco3)nc2)C(=O)O)CCCC1` (stereo in doubt) [Example 2(tt), 3-[6-(Furan-2-yl)-pyridin-3-yl]-2-{[1-(2-mercapto-4-methylthiobutanoylamino)-cyclopentanecarbonyl]-amino}-propionic acid]: the melting point was in the range of 195 to 197 °C.

For `CC(C)C[C@H](S)C(=O)NC1(C(=O)NC(Cc2ccc(-c3ccco3)nc2)C(=O)O)CCCC1` (stereo in doubt) [Example 2(qq), 3-[6-(Furan-2-yl)-pyridin-3-yl]-2-{[1-(2-mercapto-4-methyl-pentanoylamino)-cyclopentanecarbonyl]-amino}-propionic acid], the melting point was in the range of 200 to 202 °C.

In turn, `O=C(NC1(C(=O)N[C@@H](Cc2ccc(-c3cccs3)nc2)C(=O)O)CCCC1)C(S)Cc1ccc(O)cc1` (stereo in doubt) [Example 2(v), 2-({1-[3-(4-Hydroxy-phenyl)-2-mercapto-propanoylamino]-cyclopentanecarbonyl}-amino)-3-[6-(thien-2-yl)-pyridin-3-yl]-propionic acid] showed a melting point of 219 to 220 °C.

As to `CC(C)C[C@H](S)C(=O)N[C@@H](Cc1ccc(Br)nc1)C(=O)N[C@@H](Cc1ccc(-c2cccs2)nc1)C(=O)O` (stereo in doubt) [Example 2(bb), 2-[3-(6-Bromo-pyridin-3-yl)-2-(2-mercapto-4-methyl-pentanoylamino)-propionylamino]-3-[6-(thien-2-yl)-pyridin-3-yl]-propionic acid], the melting point was in the range of 194 to 195 °C.

Turning to `CC(C)C[C@H](S)C(=O)NC1(C(=O)NC(Cc2ccc(-c3cccnc3)nc2)C(=O)O)CCCC1` (stereo in doubt) [Example 2(o), 2-{[1-(2-Mercapto-4-methyl-pentanoylamino)-cyclopentanecarbonyl]-amino}-3-[6-(pyridin-3-yl)-pyridin-3-yl]-propanoic acid], the melting point lay within 165 to 168 °C.

`CC(C)C[C@H](S)C(=O)NC1(C(=O)N[C@@H](Cc2cnc(-c3ccc(F)c(Cl)c3)s2)C(=O)O)CCCC1` (stereo in doubt) [Example 1(f), 3-[2-(3-Chloro-4-fluoro-phenyl)-thiazol-5-yl]-2-{[1-(2-mercapto-4-methyl-pentanoylamino)-cyclopentanecarbonyl]-amino}-propionic acid] registered a melting point of 96 to 98 °C.

`CC(C)C[C@H](S)C(=O)NC1(C(=O)NC(Cc2ccc(-c3nccs3)nc2)C(=O)O)CCCC1` (stereo in doubt) [Example 2(uu), 2-{[1-(2-Mercapto-4-methyl-pentanoylamino)-cyclopentanecarbonyl]-amino}-3-[6-(thiazol-2-yl)-pyridin-3-yl]-propionic acid] had a melting point of 185 to 187 °C.

Take `O=C(O)C(Cc1cc(-c2ccccc2)cs1)NC(=O)C1(NC(=O)[C@@H](S)Cc2ccccc2)CCCC1` (stereo in doubt) [Example 1(d), 2-{[1-(2-Mercapto-3-phenyl-propionylamino)-cyclopentanecarbonyl]-amino}-3-(4-phenyl-thien-2-yl)-propionic acid]: the melting point lay within 133 to 136 °C.

As to `Cc1nc(-c2ccccc2)oc1CC(NC(=O)C1(NC(=O)[C@@H](S)C(C)C)CCCC1)C(=O)O` (stereo in doubt) [Example 1(e), 2-{[1-(2-Mercapto-3-methyl-butanoylamino)-cyclopentanecarbonyl]-amino}-3-(4-methyl-2-phenyl-oxazol-5-yl)-propionic acid], the melting point fell in the range of 227 to 229 °C.

With `CSCCC(S)C(=O)NC1(C(=O)NC(Cc2ccc(-c3ccoc3)nc2)C(=O)O)CCCC1.Cl` (stereo not drawn), the melting point was 150 to 153 °C.

With `CC(C)[C@H](S)C(=O)NC1(C(=O)NC(Cc2cc(-c3ccccc3)cs2)C(=O)O)CCCC1` (stereo partly drawn) [Example 1(c), 2-{[1-(2-Mercapto-3-methyl-butanoyllamino)-cyclopentanecarbonyl]-amino}-3-(4-phenyl-thien-2-yl)-propionic acid], the melting point lay in the range of 158 to 164 °C.

`CC[C@H](C)C(S)C(=O)NC1(C(=O)NC(Cc2ccc(-c3ccsc3)nc2)C(=O)O)CCCC1` (stereo in doubt) [Example 2(b), 2-{[1-(2-Mercapto-3-methyl-pentanoylamino)-cyclopentanecarbonyl]-amino}-3-[6-(thien-3yl)-pyridin-3-yl]-propionic acid] showed a melting point of 200 to 202 °C.

Take `CC(C)C[C@H](S)C(=O)N[C@@H](Cc1ccccc1)C(=O)N[C@@H](Cc1ccc(-c2cccs2)nc1)C(=O)O` [Example 2(u), 2-[1-(2-Mercapto-4-methyl-pentanoylamino)-3-phenyl-propionylamino]-3-[6-(thien-2-yl)-pyridin-3-yl]-propionic acid]: the melting point lay in the range of 209 to 210 °C.

For the compound `CC(C)C[C@H](S)C(=O)N[C@@H](Cc1ccc(-c2cccs2)nc1)C(=O)N[C@@H](Cc1ccc(-c2cccs2)nc1)C(=O)O` (stereo in doubt) [Example 2(w), 2-{2-(2-Mercapto-4-methyl-pentanoylamino)-3-[6-(thiophen-2-yl)-pyridin-3-yl]-propanoylamino}-3-[6-(thien-2-yl)-pyridin-3-yl]-propionic acid], the melting point was 210 to 212 °C.

`O=C(O)[C@H](Cc1ccc(-c2ccsc2)nc1)NC(=O)C1(NC(=O)[C@@H](S)Cc2ccccc2)CCCC1` (stereo in doubt) [Example 2(l), 2-{[1-(2-Mercapto-3-phenyl-propionylamino)-cyclopentanecarbonyl]-amino}-3-[6-(thien-3-yl)-pyridin-3-yl]-propionic acid] registered a melting point of 208 to 209 °C.

Compound `Cc1noc(C)c1-c1nc(CC(NC(=O)C2(NC(=O)[C@@H](S)CC(C)C)CCCC2)C(=O)O)no1` (stereo in doubt) [Example 1(h), 3-[5-(3,5-Dimethyl-isoxazol-4-yl)-[1,2,4]oxadiazol-3-yl]-2-{[1-(2-mercapto-4-methyl-pentanoylamino)-cyclopentanecarbonyl]-amino}-propionic acid] gave a melting point of 151 to 153 °C.
